What was measured:
Assay type in all cases: functional
Rattus norvegicus [1] = assay: In vivo activity by inhibition of PAF-induced cutaneous vascular permeability in rats after intravenous administration
Rattus norvegicus [2] = assay: In vivo activity by inhibition of PAF-induced cutaneous vascular permeability in rats after peroral administration; conditions: po
Rattus norvegicus [3] = assay: In vivo activity by inhibition of PAF-induced cutaneous vascular permeability in rats after intravenous administration of 1 mg/kg dose
Rattus norvegicus [4] = assay: xIn vivo activity by inhibition of PAF-induced cutaneous vascular permeability in rats after peroral administration; conditions: po
Rattus norvegicus [5] = assay: In vivo activity by inhibition of PAF-induced cutaneous vascular permeability in rats after peroral administration of 30 mg/kg dose; conditions: route oral
Rattus norvegicus [6] = assay: In vivo activity by inhibition of PAF-induced cutaneous vascular permeability in rats after peroral administration of 10 mg/kg dose; conditions: route oral

Structure (SMILES)	ED50 (Rattus norvegicus [1]) [mg/kg]	ED50 (Rattus norvegicus [2]) [mg/kg]	other results
CCNC(=O)n1cc(C(=O)c2ccn3c2CSC3c2cccnc2)c2ccc(-c3ccc(F)cc3)cc21 (stereo not given)	0.18	–	–
NC(=O)n1cc(C(=O)c2ccn3c2CSC3c2cccnc2)c2ccc(-c3ccc(F)cc3)cc21 (stereo not given)	0.01	0.06	–
CN(C)C(=O)n1cc(C(=O)c2ccn3c2CSC3c2cccnc2)c2ccc(Cl)cc21 (stereo not given)	–	1.4	inhibition in vivo at 1 mg/kg (Rattus norvegicus [3]): 42%
CN(C)S(=O)(=O)n1cc(C(=O)c2ccn3c2CSC3c2cccnc2)c2ccc(-c3ccc(F)cc3)cc21 (stereo not given)	–	–	ED50 (Rattus norvegicus [4]): 5.5 mg/kg
CN(C)C(=O)n1cc(C(=O)c2ccn3c2CSC3c2cccnc2)c2ccc(Cc3ccccc3)cc21 (stereo not given)	0.09	–	–
CN(C)C(=O)n1cc(C(=O)c2ccn3c2CSC3c2cccnc2)c2ccccc21 (stereo not given)	–	–	inhibition in vivo at 30 mg/kg (Rattus norvegicus [5]): 34%
CN(C)C(=O)n1cc(C(=O)c2ccn3c2CSC3c2cccnc2)c2ccc(-c3cccnc3)cc21 (stereo not given)	–	–	inhibition in vivo at 10 mg/kg (Rattus norvegicus [6]): 58%
NCCn1cc(C(=O)c2ccn3c2CSC3c2cccnc2)c2ccc(-c3ccc(F)cc3)cc21 (stereo not given)	–	1.3	–
CN(C)C(=O)n1cc(C(=O)c2ccn3c2CSC3c2cccnc2)c2ccc(-c3ccccc3)cc21 (stereo not given)	0.03	0.06	–
NNC(=O)n1cc(C(=O)c2ccn3c2CSC3c2cccnc2)c2ccc(-c3ccc(F)cc3)cc21 (stereo not given)	0.04	0.57	–
CN(C)C(=O)n1cc(C(=O)c2ccn3c2CSC3c2cccnc2)c2ccc(-c3ccc(F)cc3)cc21 (stereo not given)	0.006	0.06	–
O=C(c1ccn2c1CSC2c1cccnc1)c1c[nH]c2cc(-c3ccc(F)cc3)ccc12 (stereo not given)	–	6.4	–
O=C(c1ccn2c1CSC2c1cccnc1)c1cn(CCO)c2cc(-c3ccc(F)cc3)ccc12 (stereo not given)	0.1	0.76	–
CN(C)C(=O)n1cc(C(=O)c2ccn3c2CSC3c2cccnc2)c2ccc(Sc3ccc(F)cc3)cc21 (stereo not given)	0.27	–	–
CNC(=O)n1cc(C(=O)c2ccn3c2CSC3c2cccnc2)c2ccc(-c3ccc(F)cc3)cc21 (stereo not given)	–	0.12	–
CN(C)C(=O)Cn1cc(C(=O)c2ccn3c2CSC3c2cccnc2)c2ccc(-c3ccc(F)cc3)cc21 (stereo not given)	0.009	0.12	–
CN(C)C(=O)n1cc(C(=O)c2ccn3c2CSC3c2cccnc2)c2ccc(OCc3ccccc3)cc21 (stereo not given)	–	3.3	–
CN(C)C(=O)n1cc(C(=O)c2ccn3c2CSC3c2cccnc2)c2ccc(Oc3ccc(F)cc3)cc21 (stereo not given)	0.03	–	–
Cn1cc(C(=O)c2ccn3c2CSC3c2cccnc2)c2ccc(-c3ccc(F)cc3)cc21 (stereo not given)	0.09	–	–
CN(C)C(=O)n1cc(C(=O)c2ccn3c2CSC3c2cccnc2)c2ccc(Br)cc21 (stereo not given)	–	1.5	inhibition in vivo at 1 mg/kg (Rattus norvegicus [3]): 41%
O=C(O)CCn1cc(C(=O)c2ccn3c2CSC3c2cccnc2)c2ccc(-c3ccc(F)cc3)cc21 (stereo not given)	0.1	5.1	–

From ChEMBL document CHEMBL1128093, “Discovery and optimization of indole pyrrolothiazole paf antagonists” (Bioorg Med Chem Lett, 1995)
